From BigSolDB 2.1

CC(C)c1ncc[nH]1
solubility (mole fraction)
Settings	in 2-butanone	in acetone	in acetonitrile	in ethanol	in ethyl acetate	in isopropanol	in methanol	in n-propanol	in toluene
278.15 K	0.11	0.0906	0.0259	0.189	0.0519	0.0738	0.224	0.0999	0.0215
280.65 K	0.116	0.0946	0.0275	0.196	0.0556	0.0768	0.233	0.104	0.0225
283.15 K	0.121	0.0988	0.0291	0.203	0.0588	0.0801	0.242	0.109	0.0237
285.65 K	0.127	0.103	0.0308	0.21	0.0626	0.0825	0.252	0.114	0.0248
288.15 K	0.133	0.108	0.0325	0.216	0.066	0.0856	0.263	0.117	0.026
290.65 K	0.139	0.111	0.0343	0.226	0.0697	0.0883	0.274	0.121	0.0272
293.15 K	0.145	0.116	0.0361	0.235	0.0737	0.0927	0.285	0.126	0.0287
295.65 K	0.152	0.121	0.0379	0.243	0.0778	0.0965	0.297	0.133	0.0302
298.15 K	0.159	0.127	0.0401	0.253	0.0826	0.101	0.31	0.139	0.0318
300.65 K	0.167	0.133	0.0427	0.263	0.0883	0.105	0.322	0.146	0.0336
303.15 K	0.177	0.14	0.0453	0.273	0.0939	0.11	0.334	0.153	0.0355
305.65 K	0.185	0.146	0.0481	0.282	0.0994	0.115	0.348	0.159	0.0374
308.15 K	0.194	0.153	0.0509	0.294	0.105	0.121	0.361	0.166	0.0394
310.65 K	0.203	0.159	0.0538	0.304	0.112	0.126	0.376	0.173	0.0416
313.15 K	0.213	0.166	0.0568	0.315	0.118	0.132	0.39	0.18	0.0437
